Key:
Type in all cases: cell-based
Caco-2 cells [1] = experiment: Recovery of TEER after decreased epithelial cell-cell adhesion caused by extracellular calcium deficiency (Examples 1-3); details: for recovery of TEER in comparison with the negative control group / recovery-promoting effect on TEER in comparison with the positive control group: Example 1, FIG. 1, 1 wt. % in calcium-containing DMEM after 2 h calcium-free DMEM, n=3
Description: (§1) The oligosaccharide containing 1-kestose used in the present Example 1 is composed of 98 wt. % 1-kestose, 1 wt. % nystose, and 1 wt. % sucrose. Namely, it is an oligosaccharide containing 1-kestose at a purity of 98 wt. %. Also, as the index for the cell-cell adhesion strength in cultured cells, transepithelial electrical resistance (TEER) was used. This measurement method utilizes a property that the stronger the epithelial cell-cell adhesion, the bigger the electrical resistance value between the upper layer and the lower layer of the cell culture medium, and this technique is also employed for a model experiment using epithelial cells and the like.
(§2) Caco-2 cells, which are the epithelial colorectal carcinoma cells, were subcultured in a 10% FES-containing DMEM medium (GIBCO), and the 48th generation of cultured cells were cryopreserved and used for the following experiments. The Caco-2 cells were seeded in the upper layer of a Transwell (Corning Life Sciences) and cultured in an incubator in 5% CO2 at 37° C. in the presence of a 10% FBS-containing DMEM medium. Cell culture was performed until the electrical resistance between the upper layer and the lower layer of the Transwell (TEER) reached 400 to 500 Ω·cm^2.
The Caco-2 cells that were cultured until TEER of the Transwell reached 400 to 500 Ω·cm^2 were cultured for two hours after exchanging the 10% FES-containing DMEM medium for a calcium-free DMEM medium. Subsequently, a calcium-containing DMEM medium to which an oligosaccharide containing 1-kestose, or nystose, was added at a concentration of 1 wt. % was added to the upper layer. Then, TEER was chronologically measured every half hour, and the cells were cultured up to 22 hours and then TEER was measured (1% kestose group, 1% nystose group, n=3). As the control group, a group of cells that were cultured only in a calcium-free DMEM medium (negative control group, n=3) and a group in which culture was performed for two hours in a calcium-free DMEM medium, and then the medium was only exchanged for a calcium-containing DMEM medium (positive control group, n=3) were prepared, and chronological changes in TEER were compared.
The Caco-2 cells that were cultured until TEER of the Transwell reached 400 to 500 Ω·cm^2 were cultured for two hours after exchanging the 10% FBS-containing DMEM medium for a calcium-free DMEM medium. Subsequently, a calcium-containing DMEM medium to which an oligosaccharide containing 1-kestose was added at a concentration of 1 wt. % was added to the upper layer. Then, TEER was chronologically measured every half hour, and the cells were cultured up to three hours and then TEER was measured (calcium (+) 1% kestose group, n=3). Also, a group in which an oligosaccharide containing 1-kestose was added at a concentration of 1 wt. % to the calcium-free DMEM medium, while the medium was not exchanged for a calcium-containing DMEM medium, and cell culture was performed up to three hours and then TEER was measured was prepared (calcium (−) 1% kestose group, n=3). As the control group, a group of cells that were cultured only in a calcium-free DMEM medium (negative control group, n=3) and a group in which culture was performed for two hours in a calcium-free DMEM medium, and then the medium was only exchanged for a calcium-containing DMEM medium (positive control group, n=3) were prepared, and chronological changes in TEER were compared.
The Caco-2 cells that were cultured until TEER of the Transwell reached 400 to 500 Ω·cm^2 were cultured for two hours after exchanging the 10% FBS-containing DMEM medium for a calcium-free DMEM medium. Subsequently, a calcium-containing DMEM medium to which an oligosaccharide containing 1-kestose was added at a concentration of 1 wt. % or 0.1 wt. % was added to the upper layer. Then, TEER was chronologically measured every half hour, and the cells were cultured up to 3.5 hours and then TEER was measured (1% kestose group, 0.1% kestose group, n=3). […]

Caco-2 cells [2] = experiment: Prior administration of 1-kestose, inhibition of TEER decrease caused by extracellular calcium deficiency (Example 4); details: for TEER right before exchanging the medium for calcium-free DMEM, versus negative and positive control groups: 1 wt. %; for decrease in TEER after exchange for calcium-free DMEM and elimination of 1-kestose, versus negative control group: 1 wt. % prior administration
Description: as §1, §2
The Caco-2 cells were cultured until TEER of the Transwell reached 400 to 500 Ω·cm^2. The 10% FES-containing DMEM medium was exchanged for a […] DMEM medium, and an oligosaccharide containing 1-kestose was added at a concentration of 1 wt. % to the upper layer. The medium was exchanged for a calcium-free medium one hour or six hours later, and TEER was chronologically measured three times, every half hour (1-hour calcium (+) 1% kestose group, 6-hour calcium (+) 1% kestose group, n=3). As the control group, a group in which culture was performed for one hour or six hours in a calcium- containing DMEM medium, and then in a calcium-free DMEM medium (1-hour calcium (+) negative control group, 6-hour calcium (+) negative control group, n=3) and a group of cells that were cultured only in a calcium-containing DMEM medium (positive control group, n=3) were prepared, and chronological changes in TEER were compared.

Caco-2 cells [3] = experiment: Lucifer Yellow permeation from upper to lower layer after extracellular calcium deficiency (Example 5); details: Example 5, FIG. 6, 3 h; for residual concentration of Lucifer Yellow in the lower layer compared to the negative control group: 1 wt. % in calcium-containing medium, Lucifer Yellow in upper layer
Experimental: as §2
The Caco-2 cells that were cultured until TEER of the Transwell reached 400 to 500 Ω·cm^2 were cultured for two hours after exchanging the 10% FBS-containing DMEM medium for a calcium-free colorless HESS medium (GIBCO). Subsequently, a calcium-containing colorless HESS medium (GIBCO) to which an oligosaccharide containing 1-kestose, sucrose, or nystose was added at a concentration of 1 wt. % was added to the upper layer. At the same time, Lucifer Yellow (MP Biomedical LLC.) was added to the upper layer at a concentration of […] as a substance passing between the cells. After culturing for three hours, the HBSS medium in the lower layer was collected, and the residual concentration of Lucifer Yellow that had permeated from the upper layer to the lower layer was measured (1% kestose group, 1% sucrose group, and 1% nystose group, n=3). As the control group, a group of cells cultured only in a calcium-free HBSS medium (negative control group, n=3) and a group in which culture was performed for two hours in a calcium-free HBSS medium, and then the medium was only exchanged for a calcium-containing HBSS medium (positive control group, n=3) were prepared, and the amounts of substances that passed between the cells were compared.

Caco-2 cells [4] = experiment: Inhibition of TEER decrease caused by inflammatory cytokine IL-1β (Example 6)
Description: as §1
Caco-2 cells, which are the epithelial colorectal carcinoma cells, were subcultured in a 10% FES-containing DMEM medium (GIBCO), and the 48th generation of cultured cells were cryopreserved and used for the following experiments. […]
To the upper layer of a DMEM medium in which the Caco-2 cells were cultured until TEER of the Transwell reached 400 to 500 Ω·cm^2, an oligosaccharide containing 1-kestose was added at a concentration of 1 wt. %. […] TEER was measured 48 hours later and a ratio of the value thus measured to the initial measured value of TEER was calculated (1% kestose (+), IL-1β(+) group, n=3). […]

[5] = Example 4, FIG. 4, 1-hour calcium (+)
[6] = Example 4, FIG. 5, 6-hour calcium (+)

SMILES | recovery of TEER in comparison with the negative control group (Caco-2 cells [1]) | recovery-promoting effect on TEER in comparison with the positive control group (Caco-2 cells [1]) | promotion of TEER recovery compared to the 1% nystose group (Caco-2 cells [1]; Example 1, 1 wt. %) | recovery-promoting effect relative to the positive control group, on average (Caco-2 cells [1]; Example 1, 1 wt. %, 30 minutes after exchanging calcium-free for calcium-containing DMEM) | effect of promoting recovery of TEER in comparison with the positive control group (Caco-2 cells [1]; Example 2, FIG. 2, calcium (+), 1 wt. %) | recovery of TEER (Caco-2 cells [1]; Example 2, FIG. 2, calcium (+), 1 wt. % in calcium-containing DMEM, up to 3 h) | recovery of TEER (Caco-2 cells [1]; Example 2, FIG. 2, calcium (−), 1 wt. % in calcium-free DMEM, up to 3 h) | recovery of TEER (Caco-2 cells [1]; Example 3, FIG. 3, 0.1 wt. % in calcium-containing DMEM, up to 3.5 h) | promotion of recovery of TEER, 1% group versus 0.1% group (Caco-2 cells [1]; Example 3, FIG. 3, 1 wt. % compared with 0.1 wt. %) | recovery of TEER (Caco-2 cells [1]; Example 3, FIG. 3, 1 wt. % in calcium-containing DMEM, up to 3.5 h) | TEER right before exchanging the medium for calcium-free DMEM, versus negative and positive control groups (Caco-2 cells [2]; [5]) | decrease in TEER after exchange for calcium-free DMEM and elimination of 1-kestose, versus negative control group (Caco-2 cells [2]; [5]) | TEER right before exchanging the medium for calcium-free DMEM, versus negative and positive control groups (Caco-2 cells [2]; [6]) | decrease in TEER after exchange for calcium-free DMEM and elimination of 1-kestose, versus negative control group (Caco-2 cells [2]; [6]) | residual concentration of Lucifer Yellow in the lower layer compared to the negative control group (Caco-2 cells [3]) | residual concentration of Lucifer Yellow in the lower layer compared to the positive control group (Caco-2 cells [3]; 1 wt. %) | residual concentration of Lucifer Yellow in the lower layer, rank among all groups (Caco-2 cells [3]; 1 wt. %) | average TEER ratio (to the initial measured value of TEER) (Caco-2 cells [4]; Example 6, FIG. 7, 1 wt. % for 24 h, then IL-1β 10 ng/mL in lower layer, measured 48 h later, n=3) | inhibition of the decrease of TEER (Caco-2 cells [4]; Example 6, 1 wt. %, IL-1β 10 ng/mL, 48 h)
OC[C@H]1O[C@@](CO)(OC[C@@]2(O[C@H]3O[C@H](CO)[C@@H](O)[C@H](O)[C@H]3O)O[C@H](CO)[C@@H](O)[C@@H]2O)[C@@H](O)[C@@H]1O [1-kestose] | significant recovery of TEER | significant recovery-promoting effect | tendency of stronger promotion of recovery | 2.4 times | significant effect of promoting recovery of TEER | significant recovery of TEER | Recovery of TEER was hardly observed | significant recovery of TEER | tendency of stronger promotion of recovery of TEER | significant recovery of TEER | significant increase in TEER | tendency that a decrease in TEER in the 1-hour calcium (+) 1% kestose group was inhibited | significant increase in TEER | tendency that a decrease in TEER in the 6-hour calcium (+) 1% kestose group was inhibited | significant reduction in the residual concentration | further reduced residual concentrations | lowest residual concentration | 0.849 | approximately 26%
OC[C@H]1O[C@@](CO)(OC[C@@]2(OC[C@@]3(O[C@H]4O[C@H](CO)[C@@H](O)[C@H](O)[C@H]4O)O[C@H](CO)[C@@H](O)[C@@H]3O)O[C@H](CO)[C@@H](O)[C@@H]2O)[C@@H](O)[C@@H]1O [nystose] | significant recovery of TEER | significant recovery-promoting effect | – | – | – | – | – | – | – | – | – | – | – | – | significant reduction in the residual concentration | further reduced residual concentrations | – | – | –
